Measured values taken from patent US12454531B2, “Substituted piperazine derivatives useful as T cell activators” (BRISTOL-MYERS SQUIBB COMPANY, priority 2019, dated 2025).
Read-outs that look alike come from different tables or passages of the source.

Key:
Human whole blood pERK = assay: Assay 11: DGK Human Whole Blood pERK Assay; assay type: cell-based; conditions: anti-CD3 stimulation, pERK positive within CD8 positive population, starting concentration 20 μM, read-out: DGK HWB pERK IC50
Experimental: Assay 11: DGK Human Whole Blood pERK Assay
Human whole blood ERK phosphorylation assay was performed with human venous whole blood obtained from healthy donors (drawn with Heparin as anti-coagulant). Serial dilutions of compounds (11 points, 3-fold) in DMSO were added to 384 well plates at 20 nL/well using an ECHO 550 acoustic dispenser (Labcyte) to achieve final starting concentration of 20 μM in assay. Heparinized human whole blood was added to the compound plate at 9 μL per well and incubated for one hour at 37° C. in a humidified 95%, air/5% CO2 incubator. After one hour of compound incubation, 1 μL of human anti-CD3 antibody (in-house) in the presence of cross-linking antibody goat anti-mouse IgG (4 μg/mL) was added to the well at 1 μg/mL final concentration for stimulation of pathway and additionally incubated for 15 minutes at 37° C. Stimulation was stopped by adding 90 μL Fix/Lyse buffer (BD 558049). Cells were washed and stained with anti-CD8 PE (BD 555635) antibodies for 60 minutes at room temperature, washed again, and permeabilized on ice using Perm III buffer (BD 558050) for 30 minutes. Cells were then stained with an Alexa Fluor® 647 anti-ERK1/2 Phospho (Thr202/Tyr204) Antibody (Bioleged 675504) for 60 minutes at 1:50 dilution. Samples were washed and resuspended in dPBS containing 1% BSA (dPBS, Gibco 14190136; BSA, Sigma-Aldrich A9205). Samples analyzed using the Intellicyt® iQue Screener PLUS. The pERK activation was quantitated by the percentage of pERK positive population within CD8 positive population.

DGKζ = DGKζ (Homo sapiens (Human), UniProt Q13574); assay: Assay 1 or 2: In Vitro DGK Inhibition Assays (DGKζ LIPGLO, extruded liposome); assay type: biochemical; conditions: extruded liposome substrate, 150 μM ATP
DGKζ, sequence (Q13574 other isoform, or with tags, fused parts or gaps): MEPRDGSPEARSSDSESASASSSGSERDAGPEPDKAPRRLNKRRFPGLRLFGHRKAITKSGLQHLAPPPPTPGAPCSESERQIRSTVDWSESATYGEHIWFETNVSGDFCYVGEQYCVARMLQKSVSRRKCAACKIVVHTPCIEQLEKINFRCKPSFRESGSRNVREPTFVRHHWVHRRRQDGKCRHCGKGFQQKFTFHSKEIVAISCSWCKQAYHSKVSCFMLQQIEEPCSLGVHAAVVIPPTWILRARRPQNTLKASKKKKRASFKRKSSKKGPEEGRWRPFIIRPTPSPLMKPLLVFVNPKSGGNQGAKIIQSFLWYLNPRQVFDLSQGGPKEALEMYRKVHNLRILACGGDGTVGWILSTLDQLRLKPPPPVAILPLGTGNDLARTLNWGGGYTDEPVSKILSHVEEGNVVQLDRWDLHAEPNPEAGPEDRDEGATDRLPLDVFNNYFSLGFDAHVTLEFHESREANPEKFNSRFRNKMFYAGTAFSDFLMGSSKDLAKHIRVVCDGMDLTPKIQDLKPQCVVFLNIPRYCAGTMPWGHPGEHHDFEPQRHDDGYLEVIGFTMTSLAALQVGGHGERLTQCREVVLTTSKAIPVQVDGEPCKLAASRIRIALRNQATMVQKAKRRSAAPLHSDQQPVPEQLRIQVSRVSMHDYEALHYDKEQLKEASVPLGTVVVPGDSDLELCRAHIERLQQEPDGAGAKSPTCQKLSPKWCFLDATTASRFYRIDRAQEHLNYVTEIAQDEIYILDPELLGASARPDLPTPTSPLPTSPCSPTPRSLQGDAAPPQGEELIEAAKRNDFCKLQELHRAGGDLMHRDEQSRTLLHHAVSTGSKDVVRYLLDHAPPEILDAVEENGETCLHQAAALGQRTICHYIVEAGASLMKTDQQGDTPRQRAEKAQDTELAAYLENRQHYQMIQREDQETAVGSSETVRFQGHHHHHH
Experimental: Assay 1: In Vitro DGK Inhibition Assays—Method A
The DGKα and DGKζ reactions were performed using either extruded liposome (DGKα and DGKζ LIPGLO assays) or detergent/lipid micelle substrate (DGKα and DGKζ assays). The reactions were carried out in 50 mM MOPS pH 7.5, 100 mM NaCl, 10 mM MgCl2, 1 μM CaCl2), and 1 mM DTT (assay buffer). The reactions using a detergent/lipid micelle substrate also contained 50 mM octyl B-D-glucopyranoside. The lipid substrate concentrations were 11 mM PS and 1 mM DAG for the detergent/lipid micelle reactions. The lipid substrate concentrations were 2 mM PS, 0.25 mM DAG, and 2.75 mM PC for the extruded liposome reactions. The reactions were carried out in 150 μM ATP. The enzyme concentrations for the DGKα and DGKζ were 5 nM
The compound inhibition studies were carried out as follows: 50 nL droplets of each test compound (top concentration 10 mM with 11 point, 3-fold dilution series for each compound) solubilized in DMSO were transferred to wells of a white 1536 well plate (Corning 3725). A 5 mL enzyme/substrate solution at 2× final reaction concentration was prepared by combining 2.5 mL 4× enzyme solution (20 nM DGKα or DGKζ (prepared as described below) in assay buffer) and 2.5 mL of either 4× liposome or 4× detergent/lipid micelle solution (compositions described below) and incubated at room temperature for 10 minutes. Next, 1 μL 2× enzyme/substrate solution was added to wells containing the test compound and reactions were initiated with the addition of 1 μL 300 uM ATP. The reactions were allowed to proceed for 1 hr, after which 2 μL Glo Reagent (Promega V9101) was added and incubated for 40 minutes. Next, 4 μL Kinase Detection Reagent was added and incubated for 30 minutes. Luminescence was recorded using an EnVision microplate reader. […] The compounds were evaluated at 11 concentrations to determine IC50.
The lipid composition was 5 mol % DAG (Avanti 8008110), 40 mol % PS (Avanti 840035P), and 55 mol % PC (Avanti 850457) at a total lipid concentration of 15.2 mg/mL for the 4× liposome solution. The PC, DAG, and PS were dissolved in chloroform, combined, and dried in vacuo to a thin film. The lipids were hydrated to 20 mM in 50 mM MOPS pH 7.5, 100 mM NaCl, 5 mM MgCl2, and were freeze-thawed five times. The lipid suspension was extruded through a 100 nm polycarbonate filter eleven times. […] The liposome preparation was stored at 4° C. for as long as four weeks.
Baculovirus amplification was achieved using infected Sf9 cells at 1:1500 virus/cell ratios, and grown for 65 hours at 27° C. post-transfection.
The cells were lysed using nitrogen cavitation method with a nitrogen bomb (Parr Instruments), and the lysates were clarified by centrifugation. […] The three steps column chromatography included nickel affinity resin capture (i.e. HisTrap FF crude, GE Healthcare), followed by size exclusion chromatography (i.e. HiLoad 26/600 Superdex 200 prep grade, GE Healthcare for DGK-alpha, and HiPrep 26/600 Sephacryl S 300_HR, GE Healthcare for DGK-zeta). The third step was ion exchange chromatography, and differed for the two isoforms. DGKα was polished using Q-Sepharose anion exchange chromatography (GE Healthcare). DGKζ was polished using SP Sepharose cation exchange chromatography (GE Healthcare). The proteins were delivered at concentrations of ≥2 mg/mL. The formulation buffers were identical for both proteins: 50 mM Hepes, pH 7.2, 500 mM NaCl, 10% v/v glycerol, 1 mM TCEP, and 0.5 mM EDTA.
Assay 2: In Vitro DGK Inhibition Assays—Method B
The DGKα and DGKζ reactions were performed using either extruded liposome (DGKα and DGKζ LIPGLO assays) or detergent/lipid micelle substrate (DGKα and DGKζ assays).

| IC50 (Human whole blood pERK; Homo sapiens, CD8 positive) | IC50 (DGKζ) | IC50 (Human whole blood pERK) | Structure (SMILES) |
| --- | --- | --- | --- |
| 5530 nM | 3290 nM | – | CC[C@H]1CN(C(C(=O)N2CCOCC2)c2ccc(C(F)(F)F)cc2)[C@H](CC)CN1c1nc(=O)n(C)c2ccc(C#N)nc12 (single isomer, unassigned) [Example 53] |
| 300 nM | 100 nM | – | CC[C@H]1CN(C(C(=O)NCCOC)c2ccc(C(F)(F)F)cc2)[C@H](CC)CN1c1nc(=O)n(C)c2ccc(C#N)nc12 (single isomer, unassigned) [Example 56] |
| – | 580 nM | 3510 nM | CC[C@H]1CN(C(C(=O)N2CCOCC2)c2ccc(C(F)(F)F)cc2)[C@H](CC)CN1c1nc(=O)n(C)c2ccc(C#N)nc12 (single isomer, unassigned) [Example 54] |
